# Patent US9459250B2, “Use of T1R3 venus flytrap region polypeptide to screen for taste modulators” (SENOMYX, INC., priority 2003, dated 2016)
# Target: T1R1/T1R3 (Homo sapiens (Human), UniProt Q7RTX0+Q7RTX1)
# Assay: Umami enhancement assay: MSG dose response with and without compound
# Type: cell-based
# Settings: Table 1; compound @ 0.01 uM
# Experimental: In enhancement assay experiments, a MSG dose response was run and a second MSG dose response was run with a certain amount of candidate compound at every MSG concentrations at the same time. Then, the EC50 ratio is calculated based on the following definitions: EC50 Ratio=EC50(MSG)/EC50(MSG+[Compound])
# wherein “[compound]” refers to the concentration of compound used to elicit (or enhance or potentiate) the MSG dose response. Those concentrations can vary from a pM to an mM, more preferred, from a low nM to μM.
# HEK-Gα15 cells were engineered to inducibly express T1R1/T1R3 using the GeneSwitch system (Invitrogen). pGene-derived zeocin-resistant expression vectors for human T1R1 and T1R3 (plasmid SXV603 for T1R1 and SXV611 for T1R3) and a puromycin-resistant pSwitch-derived vector that carries the GeneSwitch protein (plasmid SXV628) were linearized and cotransfected into the HEK-Gα15 cell line. Zeocin-resistant and puromycin-resistant colonies were selected, expanded, induced with variable amounts of mifepristone, and tested by calcium imaging for responses to umami taste stimuli. […] After replacement with 50 μl PBS, stimulation was performed at room temperature by the addition of 50 μl PBS supplemented with different stimuli. The maximal fluorescence from four independent determinations were averaged, corrected for background fluorescence measured prior to compound addition, and normalized to the response to 0.002 mM ionomycin (CALBIOCHEM).
# T1R1/T1R3, sequence (Q7RTX1 21-841): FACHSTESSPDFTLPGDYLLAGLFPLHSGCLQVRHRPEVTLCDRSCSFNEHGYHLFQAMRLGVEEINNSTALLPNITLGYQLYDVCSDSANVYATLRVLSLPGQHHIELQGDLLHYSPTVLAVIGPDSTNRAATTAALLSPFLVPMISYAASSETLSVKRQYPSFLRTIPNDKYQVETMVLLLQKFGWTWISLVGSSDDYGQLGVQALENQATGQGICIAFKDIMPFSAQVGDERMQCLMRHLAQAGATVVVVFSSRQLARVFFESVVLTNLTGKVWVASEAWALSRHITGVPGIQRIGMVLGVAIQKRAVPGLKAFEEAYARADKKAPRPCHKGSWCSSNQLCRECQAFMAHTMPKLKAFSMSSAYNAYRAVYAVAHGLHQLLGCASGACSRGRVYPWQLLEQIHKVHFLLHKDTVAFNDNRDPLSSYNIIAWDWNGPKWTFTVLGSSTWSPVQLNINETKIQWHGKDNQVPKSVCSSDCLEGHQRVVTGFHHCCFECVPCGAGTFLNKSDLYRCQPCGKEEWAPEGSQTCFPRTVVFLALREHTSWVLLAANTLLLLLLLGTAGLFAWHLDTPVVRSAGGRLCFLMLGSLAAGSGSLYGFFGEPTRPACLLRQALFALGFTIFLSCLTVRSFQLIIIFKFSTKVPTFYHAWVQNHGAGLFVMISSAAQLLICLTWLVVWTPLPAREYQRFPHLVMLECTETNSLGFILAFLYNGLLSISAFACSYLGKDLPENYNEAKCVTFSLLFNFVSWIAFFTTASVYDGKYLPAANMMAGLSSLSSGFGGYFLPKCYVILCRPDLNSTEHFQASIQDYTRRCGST
# T1R1/T1R3, sequence (Q7RTX0 21-852 C757R): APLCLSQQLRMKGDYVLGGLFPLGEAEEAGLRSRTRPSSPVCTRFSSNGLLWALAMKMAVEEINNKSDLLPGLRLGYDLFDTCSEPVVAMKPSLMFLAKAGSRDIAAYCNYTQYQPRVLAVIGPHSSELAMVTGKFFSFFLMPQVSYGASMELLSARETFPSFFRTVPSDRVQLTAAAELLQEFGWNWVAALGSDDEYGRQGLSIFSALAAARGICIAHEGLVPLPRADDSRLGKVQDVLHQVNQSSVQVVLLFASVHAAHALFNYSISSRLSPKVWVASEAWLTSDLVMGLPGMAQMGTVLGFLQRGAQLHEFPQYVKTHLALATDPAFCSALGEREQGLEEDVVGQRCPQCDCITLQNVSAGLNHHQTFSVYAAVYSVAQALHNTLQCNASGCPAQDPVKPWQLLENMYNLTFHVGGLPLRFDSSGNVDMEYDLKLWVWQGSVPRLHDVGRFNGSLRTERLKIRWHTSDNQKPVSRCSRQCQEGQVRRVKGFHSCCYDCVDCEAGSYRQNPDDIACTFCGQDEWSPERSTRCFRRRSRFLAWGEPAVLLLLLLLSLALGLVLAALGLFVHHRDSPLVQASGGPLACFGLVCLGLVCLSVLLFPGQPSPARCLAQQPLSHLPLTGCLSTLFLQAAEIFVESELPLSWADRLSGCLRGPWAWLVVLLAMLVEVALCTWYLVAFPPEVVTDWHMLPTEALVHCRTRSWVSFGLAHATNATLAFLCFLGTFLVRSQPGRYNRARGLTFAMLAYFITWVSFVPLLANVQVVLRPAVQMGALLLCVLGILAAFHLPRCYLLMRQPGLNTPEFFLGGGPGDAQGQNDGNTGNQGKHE
row,Ec50 ratio (vs. MSG),SMILES
1,6.98,COC(=O)c1ccc(NC(=O)c2c(Cl)ccc(Cl)c2OC)cc1 [Compound A2]

# Same assay, conditions: Table 1; compound @ 0.03 uM
row,Ec50 ratio (vs. MSG),SMILES
1,6.14,CCOc1ccc(NC(=O)c2cc(Cl)ccc2Cl)cc1 [Compound A3]

# Same assay, conditions: Table 1; compound @ 0.1 uM
row,Ec50 ratio (vs. MSG),SMILES
1,6.42,O=C(N[C@H]1CCCc2ccccc21)c1ccc2c(c1)OCO2 [Compound A47]
2,5.12,CCCC(C)NC(=O)c1ccc(OC)c(Cl)c1 (stereo not shown) [Compound A80]

# Same assay, conditions: Table 1; compound @ 0.3 uM
row,Ec50 ratio (vs. MSG),SMILES
1,4.01,COc1ccc(C(=O)NC2CCc3ccccc32)cc1Cl (stereo not shown) [Compound A106]
2,4.98,CCCC(CCC)NC(=O)c1ccc(OC)c(F)c1 [Compound A74]
3,6.5,CCC(COC)NC(=O)c1cc2cc(Cl)ccc2o1 (stereo not shown) [Compound A11]
4,2.62,CCCC(CCC)NC(=O)c1ccc(OCC)cc1 [Compound A68]
5,10.22,C=Cc1ccc(C(=O)NC(CCC)CCC)cc1 [Compound A78]

# Same assay, conditions: Table 1; compound @ 1 uM
row,Ec50 ratio (vs. MSG),SMILES
1,6.54,CCCC(CCC)NC(=O)c1ccc(C)s1 [Compound A38]
2,3.74,CCC(CC)NC(=O)c1cc2ccccc2o1 [Compound A21]
3,8.81,CCCC(CCC)NC(=O)c1ccc2cc[nH]c2c1 [Compound A35]
4,3.8,COc1cccc(C(=O)NC2CCCc3ccccc32)c1O (stereo not shown) [Compound A87]
5,2.74,CCOc1ccc(NC(=O)c2c(Cl)ccc(Cl)c2OC)cc1 [Compound A1]
6,4.46,CCC(CC)NC(=O)c1cc2cc(OC)ccc2o1 [Compound A13]
7,12.6,CCCC(CCC)NC(=O)c1ccc(Br)o1 [Compound A30]
8,9.53,CCCC(NC(=O)c1ccc2c(c1)OCO2)C(=O)OC (stereo not shown) [Compound A49]
9,10.04,CCCC(CCC)NC(=O)c1cc(C)c(C)o1 [Compound A31]
10,5.7,COc1cccc(C(=O)N[C@H]2CCCc3ccccc32)c1O [Compound A93]
11,2.79,C=Cc1ccc(C(=O)N[C@H]2CCCc3ccccc32)cc1 [Compound A105]
12,2.3,Cc1ccc(C(=O)NC2CCCc3ccccc32)s1 (stereo not shown) [Compound A39]
13,9.27,CC(CCc1ccccc1)NC(=O)c1ccc2c(c1)OCO2 (stereo not shown) [Compound A48]
14,9.49,Cc1cc(C(=O)NC2CCCc3ccccc32)ccc1O (stereo not shown) [Compound A102]
15,2.85,COc1ccc([C@@H](C)NC(=O)c2ccc(OC)c(Cl)c2)cc1 [Compound A89]
16,7.62,CCCC(CCC)NC(=O)c1ccc(OC)cc1O [Compound A101]
17,2.86,COC(=O)C(CC(C)C)NC(=O)c1cc2cc(OC)ccc2o1 (stereo in doubt) [Compound A6]

# Same assay, conditions: Table 1; compound @ 3 uM
row,Ec50 ratio (vs. MSG),SMILES
1,2.14,CCCCC(CCCC)NC(=O)c1ccc2c(c1)OCO2 [Compound A41]

# Same assay, conditions: Table 3; Con. 0.3 uM
row,Ec50 ratio (vs. MSG),SMILES
1,2.1,"CCOc1ccc(NC(=O)NC2CCCCC2C)cc1 (stereo not shown) [Compound C10, 1-(4-ethoxyphenyl)-3-(2-methylcyclohexyl)urea]"
2,2.62,"COc1ccc(NC(=O)NC2CCCCC2C)c(OC)c1 (stereo not shown) [Compound C8, 1-(2,4-dimethoxyphenyl)-3-(2-methylcyclohexyl)urea]"

# Same assay, conditions: Table 3; Con. 1 uM
row,Ec50 ratio (vs. MSG),SMILES
1,4.52,"CCC(NC(=O)Nc1ccc(Cl)cc1Cl)c1ccccc1 (stereo not shown) [Compound C2, 1-(2,4-dichlorophenyl)-3-(1-phenylpropyl)urea]"
2,4.49,"O=C(Nc1ccccc1F)NC1CCCc2ccccc21 (stereo not shown) [Compound C11, 1-(2-fluorophenyl)-3-(1,2,3,4-tetrahydronaphthalen-1-yl)urea]"
3,3.68,"O=C(Nc1ccccc1Cl)NC1CCCc2ccccc21 (stereo not shown) [Compound C7, 1-(2-chlorophenyl)-3-(1,2,3,4-tetrahydronaphthalen-1-yl)urea]"
4,11.87,"CCC(CC)NC(=O)Nc1ccc(OC)cc1OC [Compound C13, 1-(2,4-dimethoxyphenyl)-3-(pentan-3-yl)urea]"
5,9.08,"CC(NC(=O)Nc1ccccc1Cl)C1CCCCC1 (stereo not shown) [Compound C5, 1-(2-chlorophenyl)-3-(1-cyclohexylethyl)urea]"
6,4.95,"CCCC(CCC)NC(=O)Nc1ccccc1Cl [Compound C1, 1-(2-chlorophenyl)-3-(heptan-4-yl)urea]"

# Same assay, conditions: Table 3; Con. 3 uM
row,Ec50 ratio (vs. MSG),SMILES
1,3.24,"CC1CCCCC1NC(=O)Nc1ccccc1Cl (stereo not shown) [Compound C3, 1-(2-chlorophenyl)-3-(2-methylcyclohexyl)urea]"
2,12.15,"CCCC(CCC)NC(=O)Nc1ccccc1F [Compound C4, 1-(2-fluorophenyl)-3-(heptan-4-yl)urea]"

# Same assay, conditions: Table 4; compound @ 0.3 uM
row,Ec50 ratio (vs. MSG),SMILES
1,2.7,"CCOc1ccc(/C=C/C(=O)NC(C)CC)cc1 (stereo not shown) [Compound D13, (E)-N-sec-butyl-3-(4-ethoxyphenyl)acrylamide]"
2,3.48,"CCCC(CCC)NC(=O)/C=C/c1ccc(OC)cc1 [Compound D5, (E)-N-(heptan-4-yl)-3-(4-methoxyphenyl)acrylamide]"
3,2.22,"CCCC(CCC)NC(=O)/C=C/c1ccsc1 [Compound D15, (E)-N-(heptan-4-yl)-3-(thiophen-3-yl)acrylamide]"

# Same assay, conditions: Table 4; compound @ 1 uM
row,Ec50 ratio (vs. MSG),SMILES
1,8.48,"CCC(COC)NC(=O)/C=C/c1ccc(OC)cc1 (stereo not shown) [Compound D14, (E)-N-(1-methoxybutan-2-yl)-3-(4-methoxyphenyl)acrylamide]"
2,6.3,"CCCC(CCC)NC(=O)/C=C/c1cccs1 [Compound D6, N-(1-Propyl-butyl)-3-thiophen-2-yl-acrylamide]"
3,3.13,"COc1ccc(/C=C/C(=O)NC(C)CCc2ccccc2)cc1OC (stereo not shown) [Compound D16, (E)-3-(3,4-dimethoxyphenyl)-N-(4-phenylbutan-2-yl)acrylamide]"
4,9.62,"CCC(CC)NC(=O)/C=C/c1ccc(OC)cc1 [Compound D7, (E)-3-(4-methoxyphenyl)-N-(pentan-3-yl)acrylamide]"
5,3.46,"COc1ccc(/C=C/C(=O)NC(C(C)C)C(C)C)cc1 [Compound D1, (E)-N-(2,4-dimethylpentan-3-yl)-3-(4-methoxyphenyl)acrylamide]"
6,9.73,"CC(CCc1ccccc1)NC(=O)/C=C/c1cccs1 (stereo not shown) [Compound D4, N-(1-Methyl-3-phenyl-propyl)-3-thiophen-2-yl-acrylamide]"

# Same assay, conditions: Table 5; compound concentration not given
row,Umami EC50 ratio,SMILES
1,4.04,"O=C(NC1CCCc2ccccc21)c1cccc(Cl)c1O (stereo not shown) [Compound E7, 3-chloro-2-hydroxy-N(-1,2,3,4-tetrahydronaphthalen-1-yl)benzamide]"
2,6.98,"CC1CCCCC1NC(=O)c1ccc(F)c(F)c1 (stereo not shown) [Compound E81, 3,4-difluoro-N-(2-methylcyclohexyl)benzamide]"
3,2.07,"CC1CCCCC1NC(=O)c1cccc(C(F)(F)F)c1 (stereo not shown) [Compound E59, N-(2-methylcyclohexyl)-3-(trifluoromethyl)benzamide]"
4,16.51,"COc1c(Cl)ccc(Cl)c1C(=O)Nc1ccccc1F [Compound E84, 3,6-dichloro-N-(2-fluorophenyl)-methoxybenzamide]"
5,2.08,"CC1CCCCC1NC(=O)c1ccnc(Cl)c1 (stereo not shown) [Compound E56, 2-chloro-N-(2-methylcyclohexyl)isonicotinamide]"

row,SMILES,Umami EC50 ratio
1,"COc1cc(C(=O)NC2CCCCC2C)cc(Cl)n1 (stereo not shown) [Compound E40, 2-chloro-6-methoxy-N-(2-methylcyclohexyl)isonicotinamide]",9.77
